Data on 19 molecules can be found in patent publication US20230312528A1, “2-OXO-IMIDAZOLIDINE-4-CARBOXAMIDES AS NAV1.8 INHIBITORS” (Merck Sharp & Dohme LLC, priority 2020, published 2023).

Structures are written as SMILES. Where “and” joins values, the source holds several entries; their conditions need not be identical. Equal values may be shown once.

Chain of human NaV1.8 (Q9Y5Y9 whole entry): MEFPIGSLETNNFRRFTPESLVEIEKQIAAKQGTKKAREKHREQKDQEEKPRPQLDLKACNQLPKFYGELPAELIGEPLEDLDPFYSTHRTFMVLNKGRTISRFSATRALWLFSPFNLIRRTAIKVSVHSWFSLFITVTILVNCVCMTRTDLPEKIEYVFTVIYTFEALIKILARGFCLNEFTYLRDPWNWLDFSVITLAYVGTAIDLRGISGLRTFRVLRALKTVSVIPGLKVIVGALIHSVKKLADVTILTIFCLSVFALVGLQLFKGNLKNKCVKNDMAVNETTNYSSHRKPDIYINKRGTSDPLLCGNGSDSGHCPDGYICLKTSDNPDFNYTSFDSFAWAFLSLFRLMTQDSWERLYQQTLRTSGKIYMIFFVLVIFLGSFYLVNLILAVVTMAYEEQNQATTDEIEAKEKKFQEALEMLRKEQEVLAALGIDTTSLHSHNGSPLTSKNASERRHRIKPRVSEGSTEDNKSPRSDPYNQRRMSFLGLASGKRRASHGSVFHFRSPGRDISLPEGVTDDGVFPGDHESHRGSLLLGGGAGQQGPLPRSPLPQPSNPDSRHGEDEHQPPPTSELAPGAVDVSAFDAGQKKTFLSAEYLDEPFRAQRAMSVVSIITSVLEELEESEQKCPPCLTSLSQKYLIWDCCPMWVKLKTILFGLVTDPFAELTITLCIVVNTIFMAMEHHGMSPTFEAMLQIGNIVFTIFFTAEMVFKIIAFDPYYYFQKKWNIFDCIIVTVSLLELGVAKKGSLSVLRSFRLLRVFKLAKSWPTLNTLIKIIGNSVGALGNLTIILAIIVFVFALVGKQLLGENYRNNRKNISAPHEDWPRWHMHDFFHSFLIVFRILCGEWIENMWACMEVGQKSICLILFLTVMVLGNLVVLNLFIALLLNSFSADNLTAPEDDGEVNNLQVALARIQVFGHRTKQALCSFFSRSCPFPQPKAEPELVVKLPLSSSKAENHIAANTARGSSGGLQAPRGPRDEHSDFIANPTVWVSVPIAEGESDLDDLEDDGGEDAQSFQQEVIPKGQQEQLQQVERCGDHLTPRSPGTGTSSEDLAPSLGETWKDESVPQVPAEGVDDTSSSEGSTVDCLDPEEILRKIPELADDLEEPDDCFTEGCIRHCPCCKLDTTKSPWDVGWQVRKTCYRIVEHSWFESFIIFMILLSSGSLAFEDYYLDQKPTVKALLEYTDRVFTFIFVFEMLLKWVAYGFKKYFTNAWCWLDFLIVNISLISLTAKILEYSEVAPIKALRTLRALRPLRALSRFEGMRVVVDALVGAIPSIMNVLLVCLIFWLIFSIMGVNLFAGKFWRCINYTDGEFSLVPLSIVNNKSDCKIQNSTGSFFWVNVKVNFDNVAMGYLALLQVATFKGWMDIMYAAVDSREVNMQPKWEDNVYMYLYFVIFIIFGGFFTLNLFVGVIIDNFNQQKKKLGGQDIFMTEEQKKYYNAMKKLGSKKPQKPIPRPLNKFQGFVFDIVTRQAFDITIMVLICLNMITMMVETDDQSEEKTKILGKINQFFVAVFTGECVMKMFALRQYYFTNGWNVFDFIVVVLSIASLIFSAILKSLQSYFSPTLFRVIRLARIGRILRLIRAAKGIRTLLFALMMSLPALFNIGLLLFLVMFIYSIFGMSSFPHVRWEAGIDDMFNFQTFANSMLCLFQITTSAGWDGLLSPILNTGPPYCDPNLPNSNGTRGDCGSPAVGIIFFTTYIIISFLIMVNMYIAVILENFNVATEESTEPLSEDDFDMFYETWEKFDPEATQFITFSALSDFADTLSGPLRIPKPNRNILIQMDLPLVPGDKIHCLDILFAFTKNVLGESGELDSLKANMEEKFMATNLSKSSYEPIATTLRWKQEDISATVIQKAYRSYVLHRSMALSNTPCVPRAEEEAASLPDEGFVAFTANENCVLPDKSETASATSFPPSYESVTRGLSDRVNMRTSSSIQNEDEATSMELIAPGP

This assay deals with human NaV1.8 (Homo sapiens (Human), UniProt Q9Y5Y9). Nature of the assay: Nav1.8 Qube automated patch-clamp assay. The class given is cell-based. Particulars: human NaV1.8 stably expressed in HEK 293 cells; automated 384-well patch-clamp; resting or inactivated state not specified. In outline:
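IC50 values from Hill-equation fits of offline percent inhibition: the 1st pulse gave resting and the 10th pulse inactivated-state inhibition. Stimulus was a 10 s, 1 Hz train to 10 mV (holding −90 mV, −67 mV interpulse) applied at room temperature to HEK293 cells stably expressing human NaV1.8 (Qube).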
A general note: The patch-clamp technique gives a direct electrical read-out from membranes.
Usually IC50 stands for the concentration that gives 50% inhibition. Read a high IC50 as lower potency. Take `CS(=O)(=O)c1ccc(C(NC(=O)[C@@H]2CNC(=O)N2)c2ccc(F)c(Cl)c2)cc1` (single isomer, unassigned) [Example 85A, (S)-N-((R or S)-(3-chloro-4-fluorophenyl)(4-(methylsulfonyl)phenyl)methyl)-2-oxoimidazolidine-4-carboxamide]: half-maximal inhibition (IC50) was put at 372 nM.

Regarding `O=C1NC[C@@H](C(=O)NC(c2ccc(F)c(Cl)c2F)C2COC(C(F)(F)F)C2)N1` (single isomer, unassigned) [Example 79B, (S)-N-((R or S)-(3-chloro-2,4-difluoro-phenyl)((cis or trans)-5-(trifluoromethyl)tetrahydrofuran-3-yl)methyl)-2-oxoimidazolidine-4-carboxamide], the IC50 turned out to be 190 nM.

For `O=C1NC[C@@H](C(=O)NC(c2ccc(Cl)cc2)c2ccn3nccc3c2)N1` (single isomer, unassigned) [Example 80B, (S)-N-((R or S)-(4-chlorophenyl) (pyrazolo[1,5-a]pyridin-5-yl)methyl)-2-oxoimidazolidine-4-carboxamide], half-maximal inhibition (IC50) required 107 nM.

The molecule `O=C1NC[C@@H](C(=O)NC(c2ccc(F)c(Cl)c2F)[C@@H]2CC[C@@H](C(F)(F)F)CO2)N1` (single isomer, unassigned) [Example 8C, (S)—N—((R or S)-(3-chloro-2,4-difluorophenyl)((trans)-5-(trifluoromethyl)tetrahydro-2H-pyran-2-yl)methyl)-2-oxoimidazolidine-4-carboxamide] had an IC50 of 23 nM.

Molecule `O=C1NC[C@@H](C(=O)NC(CC2CCC(C(F)(F)F)CC2)c2ccc(F)c(Cl)c2F)N1` (single isomer, unassigned) [Example 23D, (S)—N—((R or S)-1-(3-chloro-2,4-difluorophenyl)-2-((cis or trans)-4-(trifluoromethyl)cyclohexyl)ethyl)-2-oxoimidazolidine-4-carboxamide] returned a half-maximal inhibitory concentration (IC50) of 190 nM.

For `CC1(C)CC(C(NC(=O)[C@@H]2CNC(=O)N2)c2ccc(Cl)cc2)CCN1CC(F)(F)F` (single isomer, unassigned) [Example 91D, (4S)—N—((R or S)(4-chlorophenyl)((R or S)2,2-dimethyl-1-(2,2,2-trifluoroethyl)piperidin-4-yl)methyl)-2-oxoimidazolidine-4-carboxamide], half-maximal inhibition (IC50) was put at 458 nM.

Regarding `O=C1NC[C@@H](C(=O)NC(c2cnc(OCC(F)(F)F)c(F)c2)c2ccc(F)c(C(F)(F)F)n2)N1` (single isomer, unassigned) [Example 46B, (S)-N-((R or S)-(5-fluoro-6-(2,2,2-trifluoroethoxy)pyridin-3-yl)(5-fluoro-6-(trifluoromethyl)pyridin-2-yl)methyl)-2-oxoimidazolidine-4-carboxamide], the IC50 is 27 nM and 6 nM.

`O=C1NC[C@@H](C(=O)NC(c2ccc(OCC(F)(F)F)nn2)c2ccc(F)c(Cl)c2F)N1` (single isomer, unassigned) [Example 50A, (4S)—N—((R or S)-(3-chloro-2,4-difluorophenyl)(6-(2,2,2-trifluoroethoxy)-pyridazin-3-yl)methyl)-2-oxoimidazolidine-4-carboxamide] had an IC50 of 45 nM.

Consider `CN1C(=O)NCC1C(=O)NC(c1ccc(Cl)cc1)c1ccc(Cl)cc1` (single isomer, unassigned) [Example 2B, (R or S)—N-(bis(4-chlorophenyl)methyl)-3-methyl-2-oxoimidazolidine-4-carboxamide], for which the 50% inhibitory concentration (IC50) worked out at 8100 nM.

With `CC(N1CC(C)(C(NC(=O)[C@@H]2CNC(=O)N2)c2ccc(F)c(Cl)c2F)C1)C(F)(F)F` (single isomer, unassigned) [Example 65C, (S)—N—((R or S)-(3-chloro-2,4-difluorophenyl)(3-methyl-1-((R or S)-1,1,1-trifluoropropan-2-yl)azetidin-3-yl)methyl)-2-oxoimidazolidine-4-carboxamide], the IC50 stood at 309 nM.

In the case of `O=C1NC[C@@H](C(=O)NC(c2ccc(OCC(F)(F)F)nn2)c2ccc(F)c(Cl)c2F)N1` (single isomer, unassigned) [Example 50B, (4S)—N—((R or S)-(3-chloro-2,4-difluorophenyl)(6-(2,2,2-trifluoroethoxy)pyridazin-3-yl)methyl)-2-oxoimidazolidine-4-carboxamide], the half-maximal inhibitory concentration (IC50) was determined as 206 nM.

With `O=C1NC[C@@H](C(=O)NC(c2ccc(F)c(Cl)c2F)[C@@H]2CC[C@@H](C(F)(F)F)CO2)N1` (single isomer, unassigned) [Example 8A, (S)—N—((R or S)-(3-chloro-2,4-difluorophenyl)((trans)-5-(trifluoromethyl)tetrahydro-2H-pyran-2-yl)methyl)-2-oxoimidazolidine-4-carboxamide], half-maximal inhibition (IC50) was put at 1140 nM.

In turn, `N#Cc1ccc(C(NC(=O)[C@@H]2CNC(=O)N2)c2ccc(F)c(Cl)c2)nc1` (stereo partly drawn) [Example 86, (4S)-N-[(3-chloro-4-fluorophenyl)(5-cyanopyridin-2-yl)methyl]-2-oxoimidazolidine-4-carboxamide] came in with a 50% inhibitory concentration (IC50) of 320 nM.

Take `O=C1NC[C@@H](C(=O)NC(c2cnc(C(F)(F)F)c(Cl)c2)c2ccc(Cl)c(C(F)F)n2)N1` (single isomer, unassigned) [Example 3B, (S)—N—((R or S)-(5-chloro-6-(difluoromethyl)pyridin-2-yl)(5-chloro-6-(trifluoromethyl)pyridin-3-yl)methyl)-2-oxoimidazolidine-4-carboxamide]: half-maximal inhibition (IC50) was put at 2.7 nM.

`O=C1NC[C@@H](C(=O)NC(CC2CCCOC2)c2ccc(F)c(Cl)c2F)N1` (single isomer, unassigned) [Example 26B, (S)-N-((R or S)-1-(3-chloro-2,4-difluorophenyl)-2-((R or S)-tetrahydro-2H-pyran-3-yl)ethyl)-2-oxoimidazolidine-4-carboxamide] had an IC50 of 22200 nM.

Consider `O=C1NC[C@@H](C(=O)NC(COc2ccc(F)c(Cl)c2)c2ccc(F)c(Cl)c2)N1` (single isomer, unassigned) [Example 1B, (S)—N—((R or S)-2-(3-chloro-4-fluorophenoxy)-1-(3-chloro-4-fluorophenyl)ethyl)-2-oxoimidazolidine-4-carboxamide], for which half-maximal inhibition (IC50) required 22 nM.

On to `O=C1NC[C@@H](C(=O)NC(CC2CCC(F)(F)CC2)c2ccc(F)c(Cl)c2F)N1` (single isomer, unassigned) [Example 25B, (S)-N-((R or S)-1-(3-chloro-2,4-difluorophenyl)-2-(4,4-difluorocyclohexyl)ethyl)-2-oxoimidazolidine-4-carboxamide], for which the IC50 turned out to be 189 nM.

Take `O=C1NC[C@@H](C(=O)NC(c2ccc(OC(F)(F)F)nc2)c2ccc(F)c(Cl)c2F)N1` (single isomer, unassigned) [Example 24B, (4S)-N-{(R or S)-(3-chloro-2,4-difluorophenyl)[6-(trifluoromethoxy)pyridin-3-yl]methyl}-2-oxoimidazolidine-4-carboxamide]: the IC50 turned out to be 41 nM.

As for `N#Cc1ccc(C(NC(=O)[C@@H]2CNC(=O)N2)c2ccc(Cl)c(C(F)(F)F)c2)cc1` (single isomer, unassigned) [Example 60B, (S)-N-((R or S)-(4-chloro-3-(trifluoromethyl)-phenyl)(4-cyanophenyl)-methyl)-2-oxo-imidazolidine-4-carboxamide], the IC50 amounted to 3.8 nM.
